Experiment [1] deals with EphA4. Description: ephrin-A1-induced EphA4 clustering assay in cultured hippocampal neurons. Format: cell-based. The settings on record: dose of 50 μM. From the text:
FIG. 1. Inhibitory effect of small molecule compounds on EphA4 signaling. Inhibitory activity of 22 selected FDA-approved drugs in ephrin-A1-induced EphA4 clusters in cultured hippocampal neurons. n=4 neuronal cell cultures; *p<0.05 vs. Cont; unpaired Student's t-test.
The inhibitory activity of the 22 drugs listed in Table 1 was examined using an ephrin-A1-induced EphA4 clustering assay in cultured hippocampal neurons.

In experiment [2] the target is T1, extracellular domain of mouse EphA4 (interaction with ephrin-A1) (Mus musculus, UniProt Q03137).
T1 construct: the extracellular domain of mouse EphA4
Nature of the experiment: Dose-response ELISA of the EphA4/ephrin-A1 interaction. The settings on record: read-out: IC50, inhibition of interaction between extracellular domain of mouse EphA4 and ephrin-A1. Type of experiment: binding. The source says:
FIG. 3. […] Dose-response curve of nilotinib against the interaction of mouse EphA4 with ephrin-A1.
Nilotinib is a kinase inhibitor that targets the following kinases: BCR-ABL, KIT, LCK, EPHA3, EPHA8, DDR1, DDR2, PDGFRB, MAPK11, and ZAK. Nilotinib is predicted to form hydrogen bonds with Q70 in the D-E loop and T104. It also has hydrophobic interactions with F154, V157, 1163, L166, A193, and V195.

T1 sequence (Q03137 20-547 limits assumed): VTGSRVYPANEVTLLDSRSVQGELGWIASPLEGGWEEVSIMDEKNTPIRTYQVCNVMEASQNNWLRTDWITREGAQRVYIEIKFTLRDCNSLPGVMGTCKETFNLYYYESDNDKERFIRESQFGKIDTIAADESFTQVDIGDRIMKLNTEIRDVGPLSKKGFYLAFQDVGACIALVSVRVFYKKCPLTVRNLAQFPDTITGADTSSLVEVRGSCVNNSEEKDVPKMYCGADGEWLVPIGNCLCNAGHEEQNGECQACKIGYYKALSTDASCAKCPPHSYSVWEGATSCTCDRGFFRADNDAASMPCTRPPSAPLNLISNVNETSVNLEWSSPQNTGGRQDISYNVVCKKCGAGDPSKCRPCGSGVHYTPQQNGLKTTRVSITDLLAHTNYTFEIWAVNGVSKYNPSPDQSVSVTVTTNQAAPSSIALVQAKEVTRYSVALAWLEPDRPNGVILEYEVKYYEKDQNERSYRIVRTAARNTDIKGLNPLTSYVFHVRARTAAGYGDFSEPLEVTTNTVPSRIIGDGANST

Take `C[C@]12CC[C@H](O)CC1=CC[C@@H]1[C@@H]2CC[C@]2(C)C(c3cccnc3)=CC[C@@H]12` [abiraterone]: the “inhibition of ephrin-A1-induced EphA4 clustering” value (“inhibition” below) in experiment [1] came to 30%.
The IC50 is the point on the concentration scale where inhibition reaches its midpoint. As for `Cc1cn(-c2cc(NC(=O)c3ccc(C)c(Nc4nccc(-c5cccnc5)n4)c3)cc(C(F)(F)F)c2)cn1` [Nilotinib], the “inhibition” value in experiment [1] was 30%. For the same compound, the IC50 in experiment [2] came to 70.7 µM.
Take `CN1CCC(=C2c3ccccc3C=Cc3ccccc32)CC1` [Cyproheptadine]: the “inhibition” value in experiment [1] amounted to 30%.
On to Retapamulin, for which, in experiment [1], the “inhibition” value is given as 30%.

The values are drawn from patent US12290516B2, “Heterocyclic compounds as EphA4 inhibitors” (The Hong Kong University of Science and Technology, priority 2017, dated 2025).
